According to the supplement of paper PMC8149375:

Key:
Details in all cases: treatment: drug + dasatinib (fixed dose, not stated); 5 days
[1] = tested on: 769-P; test: GI50 of drug in presence of dasatinib; higher = less potent
Protocol: (§1)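 Primary HTS combination arm: 8 RCC cell lines treated with 8 doses (up to 10 uM) of each library drug plus a fixed dose of dasatinib (dose not stated) for 5 days; viability read by CellTiter-Glo and normalised to DMSO. GI50 was fitted with XLfit, AUC is the area under the dose-response curve, and minimum viability is the lowest fraction of DMSO viability across doses.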

[2] = tested on: TK-10; test: as above
Protocol: as §1

[3] = tested on: 786-O; test: as above
Protocol: as §1

[4] = tested on: SN12C; test: as above
Protocol: as §1

[5] = tested on: A498; test: as above
Protocol: as §1

[6] = tested on: ACHN; test: as above
Protocol: as §1

[7] = tested on: CAKI-1; test: as above
Protocol: as §1

[8] = tested on: 769-P; test: AUC of dose-response viability curve, drug + dasatinib, normalised to DMSO (arbitrary (AUC of normalised viability)); higher = less growth inhibition
Protocol: as §1

[9] = tested on: UO-31; test: as above
Protocol: as §1

[10] = tested on: TK-10; test: as above
Protocol: as §1

[11] = tested on: 786-O; test: as above
Protocol: as §1

[12] = tested on: SN12C; test: as above
Protocol: as §1

[13] = tested on: A498; test: as above
Protocol: as §1

[14] = tested on: ACHN; test: as above
Protocol: as §1

[15] = tested on: CAKI-1; test: as above
Protocol: as §1

[16] = tested on: 769-P; test: minimum viability across doses, drug + dasatinib, relative to DMSO (fraction); higher = less growth inhibition
Protocol: as §1

[17] = tested on: UO-31; test: as above
Protocol: as §1

[18] = tested on: TK-10; test: as above
Protocol: as §1

[19] = tested on: 786-O; test: as above
Protocol: as §1

[20] = tested on: SN12C; test: as above
Protocol: as §1

[21] = tested on: A498; test: as above
Protocol: as §1

[22] = tested on: ACHN; test: as above
Protocol: as §1

[23] = tested on: CAKI-1; test: as above
Protocol: as §1

[24] = tested on: UO-31; test: GI50 of drug in presence of dasatinib; higher = less potent
Protocol: as §1

Row | Compound | GI50 of drug [1] [nM] | GI50 of drug [2] [nM] | GI50 of drug [3] [nM] | GI50 of drug [4] [nM] | GI50 of drug [5] [nM] | GI50 of drug [6] [nM] | GI50 of drug [7] [nM] | AUC of dose-response viability curve [8] | AUC of dose-response viability curve [9] | AUC of dose-response viability curve [10] | AUC of dose-response viability curve [11] | AUC of dose-response viability curve [12] | AUC of dose-response viability curve [13] | AUC of dose-response viability curve [14] | AUC of dose-response viability curve [15] | minimum viability across doses [16] | minimum viability across doses [17] | minimum viability across doses [18] | minimum viability across doses [19] | minimum viability across doses [20] | minimum viability across doses [21] | minimum viability across doses [22] | minimum viability across doses [23] | GI50 of drug [24] [nM]
1 | COc1cc(Nc2c(C#N)cnc3cc(OCCCN4CCN(C)CC4)c(OC)cc23)c(Cl)cc1Cl [Bosutinib (SKI-606)] + Cc1nc(Nc2ncc(C(=O)Nc3c(C)cccc3Cl)s2)cc(N2CCN(CCO)CC2)n1 [dasatinib] | 1070 | 1020 | 2190 | 1330 | 3350 | 56.8 | 501 | 2.03 | 2.22 | 2.26 | 2.37 | 2.24 | 2.84 | 1.45 | 1.85 | 0.105 | 0.0097 | 0.0934 | 0.0253 | 0.199 | 0.294 | 0.103 | 0.0492 | 
2 | COc1cc(Nc2ncc3c(n2)-c2ccc(Cl)cc2C(c2c(F)cccc2OC)=NC3)ccc1C(=O)O [MLN8237 (Alisertib)] + Cc1nc(Nc2ncc(C(=O)Nc3c(C)cccc3Cl)s2)cc(N2CCN(CCO)CC2)n1 [dasatinib] | 95.7 | 2740 | 60.2 | 331 |  | 25 | 74.9 | 1.61 | 3.06 | 2.39 | 1.44 | 1.89 | 2.41 | 1.37 | 1.41 | 0.231 | 0.374 | 0.392 | 0.145 | 0.353 | 0.353 | 0.16 | 0.0592 | 5320
3 | CCOc1cc2ncc(C#N)c(Nc3ccc(OCc4ccccn4)c(Cl)c3)c2cc1NC(=O)/C=C/CN(C)C [Neratinib (HKI-272)] + Cc1nc(Nc2ncc(C(=O)Nc3c(C)cccc3Cl)s2)cc(N2CCN(CCO)CC2)n1 [dasatinib] | 102 | 74.2 | 611 | 215 | 6990 | 4.66 | 114 | 1.59 | 2.08 | 1.57 | 1.88 | 1.74 | 3.02 | 0.82 | 1.44 | 0.0611 | 0.0167 | 0.228 | 0.298 | 0.0625 | 0.51 | 0.0762 | 0.0888 | 
4 | CS(=O)(=O)O.O=C(Nc1cccc(Cl)c1)Nc1ncc(CCNc2ncnc3ccsc23)s1 [SNS-314] + Cc1nc(Nc2ncc(C(=O)Nc3c(C)cccc3Cl)s2)cc(N2CCN(CCO)CC2)n1 [dasatinib] | 155 | 3780 | 48.1 | 634 |  | 61.8 | 41.5 | 1.74 | 3.06 | 2.41 | 1.54 | 1.97 | 2.61 | 1.48 | 1.38 | 0.217 | 0.372 | 0.362 | 0.123 | 0.259 | 0.442 | 0.144 | 0.107 | 6020
5 | Cn1c(=O)c(F)c(Nc2ccc(I)cc2F)c2c(=O)n(C[C@@H](O)CO)cnc21 [TAK-733] + Cc1nc(Nc2ncc(C(=O)Nc3c(C)cccc3Cl)s2)cc(N2CCN(CCO)CC2)n1 [dasatinib] | 192 | 138 | 452 | 82.5 |  | < 3 | 29.7 | 1.73 | 1.88 | 1.71 | 1.96 | 1.51 | 1.92 | 1.21 | 1.2 | 0.201 | 0.0313 | 0.199 | 0.36 | 0.192 | 0.355 | 0.222 | 0.0816 | 200
6 | CCC(=O)N1CCN(c2ccc(-n3c(=O)ccc4cnc5ccc(-c6cnc7ccccc7c6)cc5c43)cc2C(F)(F)F)CC1 [Torin 1] + Cc1nc(Nc2ncc(C(=O)Nc3c(C)cccc3Cl)s2)cc(N2CCN(CCO)CC2)n1 [dasatinib] | 21.8 |  | 17.4 | 26.6 | 73.9 | 4.88 | 27.7 | 1.06 | 1.5 | 1.13 | 0.988 | 1.16 | 1.53 | 0.722 | 0.983 | 0.0737 | 0.00689 | 0.0693 | 0.0106 | 0.0936 | 0.025 | 0.0484 | 0.0196 | 77
7 | Nc1ccc(-c2ccc3ncc4ccc(=O)n(-c5cccc(C(F)(F)F)c5)c4c3c2)cn1 [Torin 2] + Cc1nc(Nc2ncc(C(=O)Nc3c(C)cccc3Cl)s2)cc(N2CCN(CCO)CC2)n1 [dasatinib] | 11.2 |  | < 3 | 6.44 | 22.6 | < 3 | 12.3 | 0.828 | 0.727 | 0.828 | 0.422 | 0.777 | 0.961 | 0.382 | 0.756 | 0.0396 | 0.00805 | 0.0129 | 0.00374 | 0.0283 | 0.0422 | 0.033 | 0.00828 | 14.9
